According to ChEMBL document CHEMBL1124856, “Extension of a redox-based chemical delivery system to alpha, beta-unsaturated ketones” (J Med Chem, 1990):
“And” between values parts separate entries of the source, which are not always exact repeats. Identical values can stand only once.

Legend:
Rattus norvegicus [1] = species on record: Rattus norvegicus; test: In vitro rate constant, correlation coefficient for the conversion to progesterone in rat liver homogenate; type: ADME
Rattus norvegicus [2] = species on record: Rattus norvegicus; test: In vitro rate constant, correlation coefficient for the conversion to progesterone in whole rat blood.; type: ADME, organism-based
Homo sapiens [3] = species on record: Homo sapiens; test: In vitro rate constant, correlation coefficient for the disappearance in whole human blood; Stable
[4] = Half-life for the disappearance in rat liver homogenate; type: ADME
Homo sapiens [5] = species on record: Homo sapiens; test: Half-life for the disappearance in whole human blood; Stable; type: ADME, organism-based; conditions: in vitro
[6] = Half-life for the disappearance in rat brain homogenate; type: ADME
Rattus norvegicus [7] = species on record: Rattus norvegicus; test: In vitro rate constant, correlation coefficient for the disappearance in rat brain homogenate; type: ADME
Rattus norvegicus [8] = species on record: Rattus norvegicus; test: In vitro rate constant, correlation coefficient for the disappearance in rat liver homogenate; type: ADME

Row | Compound | Correlation coefficient (Rattus norvegicus [1]) | Correlation coefficient (Rattus norvegicus [2]) | T1/2 (Homo sapiens [3]) | half-life [4] [h] | T1/2 (Homo sapiens [5]) | half-life [6] [h] | Correlation coefficient (Rattus norvegicus [7]) | Correlation coefficient (Rattus norvegicus [8])
1 | CC(=O)C1CCC2C3CC=C4C=C(OC(=O)c5ccc[n+](C)c5)CCC4(C)C3CCC12C.[I-] (stereo not drawn) | 0.996 and 0.994 | 0.998 | – | – | – | – | – | –
2 | CC(=O)C1CCC2C3CC=C4C=C(OC(=O)C5=CN(C)C=CC5)CCC4(C)C3CCC12C (stereo not drawn) | – | – | Stable | 0.267 | Stable | 1.77 | 0.98 | 0.999
